Experimental data reported in publication PMC6449294, “SNAPshots of the MCHR1: a Comparison Between the PET-Tracers [^18F]FE@SNAP and [^11C]SNAP-7941” (Molecular Imaging and Biology, 2018).

How the values were obtained:
human MCHR1 = target: T1, human MCHR1 (Homo sapiens, UniProt Q99705); assay: Kinetic real-time cell-binding study (LigandTracer) on CHO-K1-hMCHR1 cells; format: cell-based; settings: for observed association rate constant (kobs): CHO-K1-hMCHR1 cells, ambient temperature, radiotracer 0.05–1000 nM, mean ± SEM; for accumulation on CHO-K1-hMCHR1 cells: real-time cell binding, result in words
T1 construct: host or cells: CHO-K1
T1 sequence (Q99705 whole entry): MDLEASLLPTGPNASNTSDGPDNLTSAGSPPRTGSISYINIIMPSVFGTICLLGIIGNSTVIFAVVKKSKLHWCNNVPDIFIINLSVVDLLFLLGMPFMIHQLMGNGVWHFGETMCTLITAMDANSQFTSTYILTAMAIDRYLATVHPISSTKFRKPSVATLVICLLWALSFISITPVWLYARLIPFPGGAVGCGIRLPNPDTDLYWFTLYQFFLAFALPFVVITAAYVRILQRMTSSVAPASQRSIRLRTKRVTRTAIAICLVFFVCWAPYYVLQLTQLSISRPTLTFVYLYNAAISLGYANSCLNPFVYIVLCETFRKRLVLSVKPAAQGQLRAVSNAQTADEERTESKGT
Experimental: (§1) Kinetic real-time cell-binding studies were performed on adherent Chinese hamster ovary (CHO-K1) cells (negative control) and CHO-K1 cells stably expressing the human MCHR1 or MCHR2 (PerkinElmer®; Waltham, MA, USA) with [^11C]SNAP-7941 and [^18F]FE@SNAP as previously reported. The cells were cultured in Ham’s F-12 medium (Gibco®, Life Technologies) with additives (1 % penicillin-streptomycin-glutamine (PSG), 10 % fetal bovine serum (FBS), and 300-μg/m Geneticin (G-418)) and incubated in a humidified 5 % CO2 atmosphere at 37 °C. For the preparation of the binding experiment, approximately 10^6 cells were seeded as a monolayer on the bottom of a tilted cell culture dish (100 mm × 20 mm, CELLSTAR®, Greiner Bio-One) and incubated with 2-ml medium for 24 h to avoid a spreading of the cells over the whole Petri dish. In the next step, the medium was discarded and the Petri dish was placed in a horizontal position with 10-ml medium for additional 24 h. Afterwards, the binding experiment was performed at ambient temperature with LigandTracer® Yellow (Ridgeview Instruments AB, Uppsala, Sweden) using 3-ml fresh medium (Ham’s F-12, serum-free). Unspecific radiotracer uptake was determined with native CHO-K1 cells. The experiments were initiated with baseline measurements for 10–15 min followed by radioligand incubation of [^11C]SNAP-7941 and [^18F]FE@SNAP. Binding to the seeded cells was ensured by adding different concentrations of the radiotracer (0.05–1000 nM). Association-time curves were monitored in real-time until the binding equilibrium was achieved. The observed rate constant of the association reaction (kobs) was determined using non-linear regression curve fitting algorithms implemented in GraphPad Prism 6.0 (GraphPad Software, Inc., San Diego, CA, USA), as previously reported. Cell survival was continuously examined using the perimeter trace (signal vs. dish position) of the LigandTracer® 1.0.1 software (Ridgeview Instruments AB, Uppsala, Sweden).

native CHO-K1 cells = assay: Kinetic real-time cell-binding study on native CHO-K1 cells (negative control, unspecific uptake); format: cell-based, Chinese hamster; settings: result in words
Experimental: as §1, with “Afterwards, the binding experiment was performed at ambient temperature with LigandTracer® Yellow (Ridgeview Instruments AB, Uppsala, Sweden) using 3-ml fresh medium (Ham’s F-12, serum-free).” left out, “The experiments were initiated with baseline measurements for 10–15 min followed by radioligand incubation of [^11C]SNAP-7941 and [^18F]FE@SNAP. Binding to the seeded cells was ensured by adding different concentrations of the radiotracer (0.05–1000 nM).” left out, “Cell survival was continuously examined using the perimeter trace (signal vs. dish position) of the LigandTracer® 1.0.1 software (Ridgeview Instruments AB, Uppsala, Sweden).” left out

MCHR1 = target: T2, MCHR1 (Rattus norvegicus, UniProt P97639); assay: Small animal PET displacement study with (±)-SNAP-7941 (time-activity curves); format: in vivo; settings: rats; for change of brown adipose tissue (BAT) TAC after administration of (±)-SNAP-7941 / change of lung TAC after displacement: 15 mg/kg (±)-SNAP-7941; for displacement in whole brain (TAC): 15 mg/kg (±)-SNAP-7941 i.v. 15 or 20 min after tracer
T2 construct: from tissue; host or cells: living Sprague-Dawley rats (PET) and their organs after sacrifice
T2 sequence (P97639 whole entry): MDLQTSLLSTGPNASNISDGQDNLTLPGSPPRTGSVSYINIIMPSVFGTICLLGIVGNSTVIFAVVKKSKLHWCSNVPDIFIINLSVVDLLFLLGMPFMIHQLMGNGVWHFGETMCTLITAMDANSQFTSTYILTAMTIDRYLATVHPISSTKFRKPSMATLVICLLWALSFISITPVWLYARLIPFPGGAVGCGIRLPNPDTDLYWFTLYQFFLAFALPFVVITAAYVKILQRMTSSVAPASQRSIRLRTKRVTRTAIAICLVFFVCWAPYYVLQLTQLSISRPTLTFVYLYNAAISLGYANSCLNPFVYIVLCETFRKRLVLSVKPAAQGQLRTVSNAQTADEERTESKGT
Experimental: Ten-week-old male rats (412 ± 58 g, Sprague-Dawley, HIM:OFA, n = 30) and 12-week-old male mice (24 ± 6 g, BALB/cAnNRj, n = 7) were purchased from the Division of Laboratory Animal Science and Genetics, Himberg, Austria. Animals were kept under conventional housing conditions (22 ± 1 °C; 40–70 % humidity) with food and water supply ad libitum and 12-h day/night cycle. All animals were treated according to the European Union rules on animal care and respective animal experiments were approved by the Austrian Ministry of Sciences, Research and Economy (BMWFW-66.009/0029-WF/V/3b/20159). For in vivo imaging, animals were anesthetized using 1.5–2 % isoflurane mixed with oxygen (1.5–2 l/min) to avoid movement during the examination. Anesthesia as well as vital parameters were monitored during the time interval of PET acquisition. Radioligands and non-labeled compounds were administered intravenously via the lateral tail vein.
Anesthetized rats and mice were immobilized in a multimodal animal carrier unit (MACU; medres®—medical research GmbH, Cologne, Germany). The body temperature was preserved at 37 °C throughout the whole experiment. Rats received either [^11C]SNAP-7941 or [^18F]FE@SNAP, followed by an injection of (±)-SNAP-7941 (15-mg/kg body weight; displacement study; n = 4 for each radiotracer) or the respective solvent serving as the vehicle (baseline condition; n = 4 for each radiotracer). The MCHR1 antagonist, (±)-SNAP-7941, and the vehicle were administered either 15 ([^11C]SNAP-7941) or 20 min ([^18F]FE@SNAP) after the radiotracer application via the lateral tail vein. To investigate a potential binding to the P-glycoprotein (P-gp) and/or breast cancer resistance protein (BCRP) brain efflux transporter system, rats as well as mice were pretreated either with the P-gp/BCRP inhibitor TQD (15 mg/kg body weight; P-gp/BCRP inhibition group; rats: n = 4 for each radiotracer; mice: n = 4 for [^18F]FE@SNAP) or the respective solvent (baseline condition; rats: n = 3 for each radiotracer; mice: n = 3 for [^18F]FE@SNAP)). Mice received the P-gp/BCRP inhibitor 30 min and rats 60 min before the radiotracer application. Experiments were initiated with a 7-min cone beam attenuation CT (CBCT) of the brain (full rotation, 360 projections; binning 4 × 4; 80 kV; 500 μA; 200-ms exposure time) using a small animal cone beam computed tomography (CBCT) scanner (Siemens Inveon microSPECT/CT, Siemens Medical Solutions, Knoxville, USA). Subsequently, the animals were positioned in the Siemens Inveon microPET scanner (Siemens Medical Solution, Knoxville, USA). The radiotracers were injected intravenously, and dynamic PET imaging was performed for 45 min (rats) in case of [^11C]SNAP-7941 (77.46 ± 5.41 MBq; molar activity 76.66 ± 23.58 GBq/μmol; radiochemical purity > 99 %) and 30 min (mice)—60 min (rats) for [^18F]FE@SNAP (47.08 ± 6.24 MBq; molar activity 22.18 ± 9.72 GBq/μmol; radiochemical purity > 90 %).
Image reconstruction of the CT raw data was performed with a Feldkamp algorithm using a ramp filter followed by standard rat beam-hardening correction and noise reduction (matrix size 1024 × 1024; effective pixel size: 97.56 μm). All CT image data was calibrated to Hounsfield units (HU). PET list mode data were sorted into three-dimensional sinograms according to the following frame sequences, [^11C]SNAP-7941: 1 × 3 s, 3 × 2 s, 1 × 6 s, 1 × 15 s, 1 × 35 s, 1 × 145 s, 1 × 270 s, 1 × 285 s, 1 × 165 s, 3 × 30 s, 1 × 120 s, 1 × 240 s, 1 × 420 s, 1 × 900 s and for [^18F]FE@SNAP: 1 × 2 s, 1 × 3 s, 1 × 5 s, 3 × 10 s, 1 × 20 s, 1 × 60 s, 1 × 120 s, 4 × 240 s, 4 × 600 s. PET image reconstruction were performed using an OSEM 3D/OP-MAP with scatter correction and a ramp filter (matrix size 128 × 128). Image data were normalized and corrected for random events, dead time, and radioactive decay. A calibration factor was applied to convert the activity information into absolute concentration units. […]

| Compound | observed association rate constant (kobs) (human MCHR1) [min⁻¹] | accumulation on CHO-K1-hMCHR1 cells (human MCHR1) | accumulation on native CHO-K1 cells (native CHO-K1 cells) | change of brown adipose tissue (BAT) TAC after administration of (±)-SNAP-7941 (MCHR1) | change of lung TAC after displacement (MCHR1) | displacement in whole brain (TAC) (MCHR1) |
| --- | --- | --- | --- | --- | --- | --- |
| COCC1=C(C(=O)O[11CH3])C(c2ccc(F)c(F)c2)N(C(=O)NCCCN2CCC(c3cccc(NC(C)=O)c3)CC2)C(=O)N1 (stereo not drawn) [[^11C]SNAP-7941] | 0.0629 ± 0.0020 | high accumulation | negligible accumulation | increased uptake | drop in the TAC | clear displacement |
| COCC1=C(C(=O)OCC[18F])C(c2ccc(F)c(F)c2)N(C(=O)NCCCN2CCC(c3cccc(NC(C)=O)c3)CC2)C(=O)N1 (stereo not drawn) [[^18F]FE@SNAP] | 0.0859 ± 0.0028 | high accumulation | negligible accumulation | increased uptake | drop in the TAC | displacement could not be detected |
